Laboratory results: patent US10786514B2, “Dosage regiment of ferric maltol” (Shield TX (UK) Limited, priority 2015, dated 2020)

Columns and labels:
Format in all cases: in vivo, human
[1] = Phase I pharmacokinetic study: tolerability; settings: doses above 30 mg and up to 90 mg twice daily, 8 days, iron-deficient subjects with active inflammatory disease
Method: (§1) These studies were primarily pharmacokinetic and conducted in subjects with iron deficiency having active inflammatory disease or acute chronic inflammation. An open-label, randomised, single and repeat dose parallel group Phase I pharmacokinetic study was carried out to evaluate the effect of single and repeated twice daily (bid) oral doses of ST10 at 30 mg, 60 mg and 90 mg for 8 days.
(§2) 24 subjects with iron deficiency (with or without anaemia) were randomly allocated to one of the three ST10 dose groups as follows:
(§3) Group 1: 9 subjects received ST10, 30 mg twice daily for 7 days (days 1-7) plus a final 30 mg dose on the morning of day 8.
(§4) Group 2: 8 subjects received ST10, 60 mg twice daily for 7 days (days 1-7) plus a final 60 mg dose on the morning of day 8.
(§5) Group 3: 7 subjects received ST10, 90 mg twice daily for 7 days (days 1-7) plus a final 90 mg dose on the morning of day 8.

[2] = Phase I pharmacokinetic study: serum total iron concentration; settings: for maximum mean serum total iron concentration: Day 1, iron-deficient subjects
Method: as §1, §2, §3, §4, §5
(§6) On day 1, following fasting for at least 1.5-2 hours beforehand, ST10 was administered (30 mg, 60 mg or 90 mg) and blood samples collected over the following 6 h for analysis. 60 mg was administered as two 30 mg capsules and 90 mg was administered as three 30 mg capsules, both as a single dose. Subjects continued dosing with ST10 on the evening of day 1 then every morning and evening for the next 6 days (Days 2 to 7).
On day 8 following fasting for at least 1.5-2 hours beforehand the last dosing of ST10 was administered (30 mg, 60 mg or 90 mg) and blood samples collected over the following 6 h for analysis.
On Days 1 and 8 blood samples were collected predose (0 h=time of ST10 dose) and at 5 minutes(for NTBI only), 15 minutes, 30 minutes, 45 minutes, and 1, 1.5, 2, 3, 4 and 6 h postdose.
These studies used transferrin saturation and total serum iron as measurements of iron uptake from the gut into the transport mechanisms. In addition serum ferritin was used as a measure of iron storage status at the end of the dosing period; all of these measurements are standard and well recognised.
One subject in the 60 mg dose group prematurely withdrew from the study on Day 7, so full profiles of all serum iron parameters were available in the 30 mg dose group for 9 subjects (days 1 and 8), in the 60 mg dose group 8 subjects on day 1 and for 7 subjects on day 8, and in the 90 mg dose group for 7 subjects (days 1 and 8).

[3] = Phase I pharmacokinetic study: total iron binding capacity (TIBC); settings: over time and across 30, 60, 90 mg dose groups
Method: as §1, §6
On day 8 following fasting for at least 1.5-2 hours beforehand the last dosing of ST10 was administered (30 mg, 60 mg or 90 mg) and blood samples collected over the following 6 h for analysis. […]
Serum concentrations of transferrin, total iron binding capacity (TIBC), ferritin and soluble transferrin receptor; and reticulocyte haemoglobin concentrations (CHr) in whole blood were measured by central laboratories using appropriately validated methods. […]

maximum mean serum total iron concentration ([2]; 30 mg oral dose group): 32.3 µmol/L
maximum mean serum total iron concentration ([2]; 60 mg oral dose group): 49.1 µmol/L
maximum mean serum total iron concentration ([2]; 90 mg oral dose group): 48.7 µmol/L
serum total iron concentrations on Day 8 versus Day 1 ([2]; Day 8, 30, 60, 90 mg dose groups): Comparable
Substance: ferric trimaltol [ST10]
tolerability [1]: well tolerated
total iron binding capacity, mean concentration [3]: approximately 70 μmol/L
